Source: ChEMBL document CHEMBL4425179, “Colorectal anticancer activities of polymethoxylated 3-naphthyl-5-phenylpyrazoline-carbothioamides” (Bioorg Med Chem Lett, 2016)
The source made the active and inactive calls. No cut-off for these calls is given here.

Columns and labels:
HCT-116 [1] = test: Growth inhibition of human HCT116 cells after 7 days by clonogenic survival assay; assay type: functional; conditions: HCT-116, 168 h
[2] = molecular target: T1, Aurora kinase A (Homo sapiens) (UniProt O14965); test: Inhibition of aurora A phosphorylation at Thr-288 in human HCT116 cells at 20 uM by Western blot analysis; assay type: cell-based; conditions: TDE = time-dependent effect
T1 sequence (whole entry): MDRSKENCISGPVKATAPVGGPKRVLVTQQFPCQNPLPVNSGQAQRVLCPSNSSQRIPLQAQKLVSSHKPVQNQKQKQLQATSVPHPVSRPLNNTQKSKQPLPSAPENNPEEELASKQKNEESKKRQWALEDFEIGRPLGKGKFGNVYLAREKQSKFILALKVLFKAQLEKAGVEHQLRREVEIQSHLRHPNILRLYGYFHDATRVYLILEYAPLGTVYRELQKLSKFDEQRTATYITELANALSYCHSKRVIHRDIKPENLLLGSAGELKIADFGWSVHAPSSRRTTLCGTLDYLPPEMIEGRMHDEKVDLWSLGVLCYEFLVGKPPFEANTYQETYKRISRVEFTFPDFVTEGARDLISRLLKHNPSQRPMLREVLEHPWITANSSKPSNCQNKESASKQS

HCT-116 [3] = test: Cell cycle arrest in human HCT116 cells assessed as accumulation at S phase at 20 uM after 24 to 48 hrs by propidium iodide staining based flow cytometry (reference value: 13 to 18%); assay type: functional
Homo sapiens = species: Homo sapiens; test: Selectivity ratio of IC50 for human recombinant N-terminal His6-tagged full-length aurora A to IC50 for human recombinant His-tagged aurora B
HCT-116 [4] = test: Cell cycle arrest in human HCT116 cells assessed as accumulation at G1 phase at 10 uM after 24 to 48 hrs by propidium iodide staining based flow cytometry (reference value: 51 to 58.9%); assay type: functional
Aurora kinase B [5] = molecular target: T2, Aurora kinase B (Homo sapiens, UniProt Q96GD4); test: Inhibition of aurora B in human HCT116 cells assessed as decrease in histone H3 phosphorylation at Ser-10 at 20 uM by Western blot analysis; assay type: cell-based; conditions: TDE = time-dependent effect
HCT-116 [6] = test: Downregulation of cyclin D1 expression in human HCT116 cells at 20 uM by Western blot analysis; assay type: functional, cell-based; conditions: TDE = time-dependent effect
HCT-116 [7] = test: Downregulation of cyclin B1 expression in human HCT116 cells at 20 uM by Western blot analysis; assay type: functional, cell-based; conditions: TDE = time-dependent effect
HCT-116 [8] = test: Cell cycle arrest in human HCT116 cells assessed as accumulation at S phase at 40 uM after 24 to 48 hrs by propidium iodide staining based flow cytometry (reference value: 13 to 18%); assay type: functional
HCT-116 [9] = test: Cell cycle arrest in human HCT116 cells assessed as accumulation at G1 phase after 24 to 48 hrs by propidium iodide staining based flow cytometry; assay type: functional
HCT-116 [10] = test: Induction of apoptosis in human HCT116 cells assessed as caspase 3 cleavage at 20 uM after 36 hrs by Western blot analysis; assay type: functional, cell-based
HCT-116 [11] = test: Cell cycle arrest in human HCT116 cells assessed as accumulation at G2/M phase at 10 uM after 24 to 48 hrs by propidium iodide staining based flow cytometry (reference value: 22.9 to 24%); assay type: functional
Aurora kinase A = molecular target: T3, Aurora kinase A (Homo sapiens, UniProt O14965); test: Inhibition of human recombinant N-terminal His6-tagged full-length aurora A expressed in Sf21 insect cells using ER-alpha as substrate after 25 mins by immunoblot analysis
T3 sequence (O14965 whole entry): T1 sequence (whole entry)

HCT-116 [12] = test: Cell cycle arrest in human HCT116 cells assessed as accumulation at sub-G1 phase at 20 uM after 48 hrs by propidium iodide staining based flow cytometry (reference value: 4%); assay type: functional
Aurora kinase B [13] = molecular target: T2, Aurora kinase B; test: Inhibition of human recombinant His-tagged aurora B expressed in baculovirus infected Sf21 insect cells by Western blot analysis
HCT-116 [14] = test: Induction of apoptosis in human HCT116 cells assessed as caspase 9 cleavage at 20 uM after 36 hrs by Western blot analysis; assay type: functional, cell-based
HCT-116 [15] = test: Cell cycle arrest in human HCT116 cells assessed as accumulation at G1 phase at 40 uM after 24 to 48 hrs by propidium iodide staining based flow cytometry (reference value: 51 to 58.9%); assay type: functional
HCT-116 [16] = test: Cell cycle arrest in human HCT116 cells assessed as accumulation at G2/M phase at 20 uM after 24 to 48 hrs by propidium iodide staining based flow cytometry (reference value: 22.9 to 24%); assay type: functional
[17] = molecular target: T4, Aurora kinase C (Homo sapiens) (UniProt Q9UQB9); test: Inhibition of aurora C phosphorylation at Thr-198 in human HCT116 cells at 20 uM by Western blot analysis; assay type: cell-based; conditions: TDE = time-dependent effect
T4 sequence (whole entry): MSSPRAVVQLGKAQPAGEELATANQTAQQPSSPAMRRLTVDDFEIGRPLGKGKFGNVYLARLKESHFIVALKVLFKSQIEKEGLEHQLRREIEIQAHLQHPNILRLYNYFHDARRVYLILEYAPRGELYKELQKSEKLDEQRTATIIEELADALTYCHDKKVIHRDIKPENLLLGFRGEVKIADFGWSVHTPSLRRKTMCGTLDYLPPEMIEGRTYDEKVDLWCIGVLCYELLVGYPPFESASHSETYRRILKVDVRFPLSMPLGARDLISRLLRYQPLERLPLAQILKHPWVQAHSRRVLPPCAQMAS

Aurora kinase B [18] = molecular target: T2, Aurora kinase B; test: Inhibition of aurora B phosphorylation at Thr-232 in human HCT116 cells at 20 uM by Western blot analysis; assay type: cell-based; conditions: TDE = time-dependent effect
[19] = molecular target: T1, Aurora kinase A (Homo sapiens); test: Inhibition of aurora A in human HCT116 cells assessed as decrease in histone H3 phosphorylation at Ser-10 at 20 uM by Western blot analysis; assay type: cell-based; conditions: TDE = time-dependent effect
HCT-116 [20] = test: Cell cycle arrest in human HCT116 cells assessed as accumulation at G1 phase at 20 uM after 24 to 48 hrs by propidium iodide staining based flow cytometry (reference value: 51 to 58.9%); assay type: functional
HCT-116 [21] = test: Cell cycle arrest in human HCT116 cells assessed as accumulation at G2/M phase at 40 uM after 24 to 48 hrs by propidium iodide staining based flow cytometry (reference value: 22.9 to 24%); assay type: functional
HCT-116 [22] = test: Induction of apoptosis in human HCT116 cells assessed as PARP cleavage at 20 uM after 36 hrs by Western blot analysis; assay type: functional, cell-based
HCT-116 [23] = test: Cell cycle arrest in human HCT116 cells assessed as accumulation at S phase at 10 uM after 24 to 48 hrs by propidium iodide staining based flow cytometry (reference value: 13 to 18%); assay type: functional
HCT-116 [24] = test: Cytotoxicity against human HCT116 cells assessed as decrease in cell viability after 24 hrs by WST-8 based CCK-8 assay; assay type: functional
HCT-116 [25] = test: Induction of apoptosis in human HCT116 cells assessed as caspase 7 cleavage at 20 uM after 36 hrs by Western blot analysis; assay type: functional, cell-based

T2 sequence (Q96GD4 whole entry): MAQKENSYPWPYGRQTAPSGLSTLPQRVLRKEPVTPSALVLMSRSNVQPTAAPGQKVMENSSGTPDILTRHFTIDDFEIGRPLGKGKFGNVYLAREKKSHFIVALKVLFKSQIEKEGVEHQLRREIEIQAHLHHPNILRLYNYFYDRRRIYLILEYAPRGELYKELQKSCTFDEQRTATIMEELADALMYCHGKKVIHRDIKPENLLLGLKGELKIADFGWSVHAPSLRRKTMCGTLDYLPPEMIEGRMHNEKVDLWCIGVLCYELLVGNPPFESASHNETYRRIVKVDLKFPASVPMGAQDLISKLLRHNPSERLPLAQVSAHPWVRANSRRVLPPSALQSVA

COc1ccccc1C1CC(c2c(O)ccc3ccccc23)=NN1C(=S)Nc1cc(OC)c(OC)c(OC)c1 (stereo not given)
GI50 (HCT-116 [1]; read-out: GI50): 0.994 µM | GI50 (HCT-116 [1]; read-out: pGI50 (converted)): 1 µM

COc1ccccc1C1CC(c2ccc3ccccc3c2O)=NN1C(=S)Nc1ccccc1 (stereo not given)
GI50 (HCT-116 [1]; read-out: GI50): 0.742 µM | GI50 (HCT-116 [1]; read-out: pGI50 (converted)): 0.741 µM

COc1cccc(C2CC(c3ccc4ccccc4c3O)=NN2C(=S)Nc2cc(OC)c(OC)c(OC)c2)c1 (stereo not given)
GI50 (HCT-116 [1]; read-out: GI50): 0.201 µM | GI50 (HCT-116 [1]; read-out: pGI50 (converted)): 0.2 µM

COc1ccccc1C1CC(c2c(O)ccc3ccccc23)=NN1C(=S)Nc1ccccc1 (stereo not given)
GI50 (HCT-116 [1]; read-out: GI50): 2.5 µM | GI50 (HCT-116 [1]; read-out: pGI50 (converted)): 2.51 µM

COc1ccc(C2CC(c3ccc4ccccc4c3O)=NN2C(=S)Nc2cc(OC)c(OC)c(OC)c2)cc1 (stereo not given)
GI50 (HCT-116 [1]; read-out: GI50): 0.208 µM | GI50 (HCT-116 [1]; read-out: pGI50 (converted)): 0.209 µM

COc1ccc(NC(=S)N2N=C(c3c(O)ccc4ccccc34)CC2c2ccccc2OC)cc1 (stereo not given)
GI50 (HCT-116 [1]; read-out: GI50): 0.742 µM | GI50 (HCT-116 [1]; read-out: pGI50 (converted)): 0.741 µM

COc1cccc(NC(=S)N2N=C(c3ccc4ccccc4c3O)CC2c2cccc(OC)c2)c1 (stereo not given)
GI50 (HCT-116 [1]; read-out: GI50): 0.272 µM | GI50 (HCT-116 [1]; read-out: pGI50 (converted)): 0.269 µM

COc1cccc(NC(=S)N2N=C(c3ccc4ccccc4c3O)CC2c2ccccc2OC)c1 (stereo not given)
GI50 (HCT-116 [1]; read-out: GI50): 0.445 µM | GI50 (HCT-116 [1]; read-out: pGI50 (converted)): 0.447 µM

COc1ccc(C2CC(c3ccc4ccccc4c3O)=NN2C(=S)Nc2ccccc2OC)cc1 (stereo not given)
GI50 (HCT-116 [1]; read-out: GI50): 3.54 µM | GI50 (HCT-116 [1]; read-out: pGI50 (converted)): 3.55 µM

COc1ccccc1C1CC(c2ccc3ccccc3c2O)=NN1C(=S)Nc1cc(OC)c(OC)c(OC)c1 (stereo not given)
GI50 (HCT-116 [1]; read-out: GI50): 0.223 µM | GI50 (HCT-116 [1]; read-out: pGI50 (converted)): 0.224 µM

COc1cccc(C2CC(c3ccc4ccccc4c3O)=NN2C(=S)Nc2ccccc2)c1 (stereo not given)
GI50 (HCT-116 [1]; read-out: GI50): 0.321 µM | GI50 (HCT-116 [1]; read-out: pGI50 (converted)): 0.324 µM

COc1ccc(C2CC(c3ccc4ccccc4c3O)=NN2C(=S)Nc2cccc(OC)c2)cc1 (stereo not given)
inhibition [2]: Tde | Activity (HCT-116 [3]): 27.4 - 28% | Ratio IC50 (Homo sapiens): 12.3 | Activity (HCT-116 [4]): 45.6% | inhibition (Aurora kinase B [5]): Tde | Activity (HCT-116 [6]): Tde | Activity (HCT-116 [7]): Tde | Activity (HCT-116 [8]): 29.4% | Activity (HCT-116 [9]): Dose-dependent effect | Activity (HCT-116 [10]): Active | Activity (HCT-116 [11]): 26.8% | IC50 (Aurora kinase A): 105 µM | Activity (HCT-116 [12]): 17% | IC50 (Aurora kinase B [13]): 8.53 µM | Activity (HCT-116 [14]): Active | Activity (HCT-116 [15]): 36.8% | Activity (HCT-116 [16]): 25.7 - 27% | inhibition [17]: Tde | inhibition (Aurora kinase B [18]): Tde | inhibition [19]: Tde | Activity (HCT-116 [20]): 18 - 43.2% | Activity (HCT-116 [21]): 30.8% | Activity (HCT-116 [22]): Active | Activity (HCT-116 [23]): 23.7% | Activity (HCT-116 [24]): Dose-dependent effect | GI50 (HCT-116 [1]; read-out: GI50): 0.196 µM | GI50 (HCT-116 [1]; read-out: pGI50 (converted)): 0.195 µM | Activity (HCT-116 [25]): Active

COc1ccccc1NC(=S)N1N=C(c2c(O)ccc3ccccc23)CC1c1ccccc1OC (stereo not given)
GI50 (HCT-116 [1]; read-out: GI50): 3.97 µM | GI50 (HCT-116 [1]; read-out: pGI50 (converted)): 3.98 µM

COc1ccc(NC(=S)N2N=C(c3ccc4ccccc4c3O)CC2c2ccc(OC)cc2)cc1 (stereo not given)
GI50 (HCT-116 [1]; read-out: GI50): 0.234 µM | GI50 (HCT-116 [1]; read-out: pGI50 (converted)): 0.234 µM

COc1cccc(C2CC(c3ccc4ccccc4c3O)=NN2C(=S)Nc2ccccc2OC)c1 (stereo not given)
GI50 (HCT-116 [1]; read-out: GI50): 3.92 µM | GI50 (HCT-116 [1]; read-out: pGI50 (converted)): 3.89 µM

COc1ccccc1NC(=S)N1N=C(c2ccc3ccccc3c2O)CC1c1ccccc1OC (stereo not given)
GI50 (HCT-116 [1]; read-out: GI50): 4.92 µM | GI50 (HCT-116 [1]; read-out: pGI50 (converted)): 4.9 µM

COc1ccc(C2CC(c3ccc4ccccc4c3O)=NN2C(=S)Nc2ccccc2)cc1 (stereo not given)
GI50 (HCT-116 [1]; read-out: GI50): 0.239 µM | GI50 (HCT-116 [1]; read-out: pGI50 (converted)): 0.24 µM

COc1cccc(C2CC(c3ccc4ccccc4c3O)=NN2C(=S)Nc2ccc(OC)cc2OC)c1 (stereo not given)
GI50 (HCT-116 [1]; read-out: GI50): 2.43 µM | GI50 (HCT-116 [1]; read-out: pGI50 (converted)): 2.45 µM

COc1ccc(NC(=S)N2N=C(c3ccc4ccccc4c3O)CC2c2cccc(OC)c2)cc1 (stereo not given)
GI50 (HCT-116 [1]; read-out: GI50): 0.318 µM | GI50 (HCT-116 [1]; read-out: pGI50 (converted)): 0.316 µM

COc1ccc(C2CC(c3ccc4ccccc4c3O)=NN2C(=S)Nc2ccc(OC)cc2OC)cc1 (stereo not given)
GI50 (HCT-116 [1]; read-out: GI50): 2.47 µM | GI50 (HCT-116 [1]; read-out: pGI50 (converted)): 2.45 µM

COc1ccc(NC(=S)N2N=C(c3ccc4ccccc4c3O)CC2c2ccccc2OC)cc1 (stereo not given)
GI50 (HCT-116 [1]; read-out: GI50): 0.369 µM | GI50 (HCT-116 [1]; read-out: pGI50 (converted)): 0.372 µM

COc1ccc(NC(=S)N2N=C(c3ccc4ccccc4c3O)CC2c2ccccc2OC)c(OC)c1 (stereo not given)
GI50 (HCT-116 [1]; read-out: GI50): 4.2 µM | GI50 (HCT-116 [1]; read-out: pGI50 (converted)): 4.17 µM
